{"source": "paper PMC4741387", "about": "(Biochemistry, 2015)", "test_in_all_cases": "fluorescence titration of rhodamine-labelled protein", "key": {"[1]": {"molecular_target": "T1, rho-PBP: (A17C,A197C)PBP labeled with 6-IATR (PstS phosphate binding protein) (Escherichia coli, UniProt P0AG82, A222C/A42C/G165A)", "T1 sequence (P0AG82 26-346 A42C/G165A/A222C)": "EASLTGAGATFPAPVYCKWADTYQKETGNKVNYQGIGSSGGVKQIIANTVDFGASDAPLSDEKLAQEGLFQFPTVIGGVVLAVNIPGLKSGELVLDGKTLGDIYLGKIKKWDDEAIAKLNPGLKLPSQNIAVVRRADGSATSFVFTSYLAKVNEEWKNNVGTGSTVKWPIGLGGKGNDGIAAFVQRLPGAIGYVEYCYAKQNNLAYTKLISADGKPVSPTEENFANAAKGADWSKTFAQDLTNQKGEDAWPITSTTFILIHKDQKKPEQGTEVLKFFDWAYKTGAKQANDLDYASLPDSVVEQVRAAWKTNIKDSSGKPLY"}, "[2]": {"molecular_target": "T2, (K229C,E302C)PBP labeled with 6-IATR (PstS phosphate binding protein) (Escherichia coli, UniProt P0AG82, E327C/G165A/K254C)", "T2 sequence (P0AG82 26-346 G165A/K254C/E327C)": "T1 sequence (P0AG82 26-346 A42C/G165A/A222C) with C17A, C197A, K229C, E302C"}, "[3]": {"molecular_target": "T3, rho-PBP: (A17C,A197C)PBP labeled with 6-IATR (PstS phosphate binding protein) (Escherichia coli, UniProt P0AG82, A222C/A42C/T35A)", "T3 sequence (P0AG82 26-346 T35A/A42C/A222C)": "T1 sequence (P0AG82 26-346 A42C/G165A/A222C) with T10A, A140G"}, "[4]": {"molecular_target": "T4, rho-PBP: (A17C,A197C)PBP labeled with 6-IATR (PstS phosphate binding protein) (Escherichia coli, UniProt P0AG82, A222C/A42C/S63A)", "T4 sequence (P0AG82 26-346 A42C/S63A/A222C)": "T1 sequence (P0AG82 26-346 A42C/G165A/A222C) with S38A, A140G"}, "[5]": {"molecular_target": "T5, rho-PBP: (A17C,A197C)PBP labeled with 6-IATR (PstS phosphate binding protein) (Escherichia coli, UniProt P0AG82, A222C/A42C/G165A/S189K/S64D)", "T5 sequence (P0AG82 26-346 A42C/S64D/G165A/S189K/A222C)": "T1 sequence (P0AG82 26-346 A42C/G165A/A222C) with S39D, S164K"}, "[6]": {"molecular_target": "T6, rho-PBP: (A17C,A197C)PBP labeled with 6-IATR (PstS phosphate binding protein) (Escherichia coli, UniProt P0AG82, A222C/A42C/R160A)", "T6 sequence (P0AG82 26-346 A42C/R160A/A222C)": "T1 sequence (P0AG82 26-346 A42C/G165A/A222C) with R135A, A140G"}}, "note": "Where a chain is given by its changes, count along the chain named.", "data": [{"smiles": "O=P(O)(O)O", "note": "[inorganic phosphate]", "values": [{"measurement": "Kd", "setting": "[1]", "result": "70 ± 17", "unit": "µM"}, {"measurement": "Kd", "setting": "[2]", "result": "220 ± 11", "unit": "µM"}, {"measurement": "Kd", "setting": "[3]", "result": "32 ± 2", "unit": "µM"}, {"measurement": "Kd", "setting": "[4]", "result": "68 ± 9", "unit": "µM"}, {"measurement": "Kd", "setting": "[5]", "result": "40 ± 4", "unit": "µM"}, {"measurement": "Kd", "setting": "[6]", "result": "< 1", "unit": "µM"}]}]}
